# “And” between values parts separate entries of the source, which are not always exact repeats. Equal values may be shown once.
# How the values were obtained:
# [1] = administered in large quantities; cited from earlier work
# [2] = In vitro resorption of bovine vertebral cortical bone sections (weight change after incubation)
# Method: Fresh bovine vertebral bone was cut into 1-3 g sections with a diamond saw blade. Non-cortical medullary bone was trimmed from the cortical bone and the sections were dried while incubated for 12 hours at 37° C. and then weighed. […] Bone sections were then dried and reweighed.
# [3] = citric acid 0.001M, pH 3.25, 37° C., 96 hours
# [4] = citric acid 0.01M, pH 2.62, 37° C., 96 hours
# [5] = citric acid 0.1M, pH 2.08, 37° C., 96 hours
# [6] = citric acid 1M, pH 1.57, 37° C., 96 hours
# [7] = sodium citrate 0.001M, pH 7.65, 37° C., 96 hours
# [8] = sodium citrate 0.01M, pH 7.78, 37° C., 96 hours
# [9] = sodium citrate 0.1M, pH 9.27, 37° C., 96 hours
# [10] = sodium citrate 1M, pH 8.67, 37° C., 96 hours
structure (smiles),measurement,setting,value
O=C(O)CC(O)(CC(=O)O)C(=O)O [Citrate],toxicity,[1],non-toxic
"O=C(O)CC(O)(CC(=O)O)C(=O)O [Citric acid, citric acid]",% change,[2]; [3],+0.00349%
same,Wt. change,[2]; [3],+0.00432 g
same,% change,[2]; [4],−0.04435%
same,Wt. change,[2]; [4],-0.06128 g
same,% change,[2]; [5],−0.1198%
same,Wt. change,[2]; [5],-0.1916 g
same,% change,[2]; [6],−0.288%
same,Wt. change,[2]; [6],-0.4863 g
same,dependence of bone resorption,"[2]; citric acid, 37° C., 96 hours",pH dependent
"O=C([O-])CC(O)(CC(=O)[O-])C(=O)[O-].[Na+].[Na+].[Na+] [Sodium citrate, sodium citrate]",% change,[2]; [7],−0.00037%
same,Wt. change,[2]; [7],-0.00077 g
same,% change,[2]; [8],−0.01319%
same,Wt. change,[2]; [8],-0.03261 g
same,% change,"[2]; sodium citrate 0.1M, pH 9.27, 37° C.",−0.03159% and −0.00551%
same,% change,[2]; [9],−0.01116%
same,Wt. change,[2]; [9],-0.01593 g
same,% change,"[2]; sodium citrate 0.125M, pH 9.20, 37° C.",−0.00109% and −0.03799%
same,% change,"[2]; sodium citrate 0.15M, pH 9.16, 37° C.",−0.04659% and −0.05754%
same,% change,"[2]; sodium citrate 0.25M, pH 9.12, 37° C.",−0.00373% and −0.01174%
same,% change,"[2]; sodium citrate 0.55M, pH 8.68, 37° C.",−0.00196% and −0.01386%
same,% change,[2]; [10],−0.01873%
same,Wt. change,[2]; [10],-0.04881 g
same,molarity of greatest resorption of bone,"[2]; sodium citrate, 37° C., 168 hours",0.15 M

# From patent publication US9616040B2 (priority 2016, dated 2017)
